Assay results from US10202361B2, “Pyridazinones as herbicides” (E I DU PONT DE NEMOURS AND COMPANY, priority 2014, dated 2019).

Tests used:
Assay type in all cases: in vivo
[1] = test system: Russian thistle (Salsola kali); assay: Test D pre-/postemergence controlled growth environment herbicide test; conditions: scale 0 to 100
In short: (§1)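 Visual injury scored 0–100 (100 = complete control) against untreated controls, 14–21 d after treatment in a controlled growth environment. Compounds, formulated in non-phytotoxic solvent with surfactant, were applied preemergence to silt loam soil or postemergence to 1- to 4-leaf plants (2–18 cm) in peat-based medium.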

[2] = test system: windgrass (Apera spica-venti); assay: as above; conditions: scale 0 to 100
In short: as §1

[3] = test system: buckwheat, wild (wild buckwheat, Polygonum convolvulus); assay: as above; conditions: scale 0 to 100
In short: as §1

[4] = test system: speedwell (bird's-eye speedwell, Veronica persica); assay: as above; conditions: scale 0 to 100
In short: as §1

[5] = test system: blackgrass (Alopecurus myosuroides); assay: as above; conditions: scale 0 to 100
In short: as §1

[6] = test system: kochia (Kochia scoparia); assay: Test E pre-/postemergence greenhouse herbicide test; conditions: Preemergence, scale 0 to 100
Excerpt: (§2) Seeds of plant species selected from corn (Zea mays), soybean (Glycine max), lambsquarters (Chenopodium album), poinsettia, wild (wild poinsettia, Euphorbia heterophylla), pigweed, palmer (palmer pigweed, Amaranthus palmeri), waterhemp (common waterhemp, Amaranthus rudis), surinam grass (Brachiaria decumbens), crabgrass, large (large crabgrass Digitaria sanguinalis), crabgrass, Brazil (Brazilian crabgrass, Digitaria horizontalis), panicum, fall (fall panicum, Panicum dichotomiflorum), foxtail, giant (giant foxtail, Setaria faberii), foxtail, green (green foxtail, Setaria viridis), goosegrass (Eleusine indica), johnsongrass (Sorghum halepense), ragweed (common ragweed, Ambrosia elatior), barnyardgrass (Echinochloa crus-galli), sandbur (southern sandbur, Cenchrus echinatus), arrowleaf sida (Sida rhombifolia), ryegrass, Italian (Italian ryegrass, Lolium multiflorum), dayflower, VA (Virginia dayflower, Commelina virginica), field bindweed (Convolvulus arvensis), cocklebur (common cocklebur, Xanthium strumarium), morningglory (Ipomoea coccinea), nightshade (eastern black nightshade, Solanum ptycanthum), kochia (Kochia scoparia), nutsedge, yellow (yellow nutsedge, Cyperus esculentus), smartweed (ladysthumb smartweed, Polygonum persicaria), velvetleaf (Abutilon theophrasti), and beggarticks (hairy beggarticks, Bidens pilosa), were planted into a silt loam soil and treated preemergence with test chemicals formulated in a non-phytotoxic solvent mixture which included a surfactant.
(§3) At the same time, plants from these crop and weed species and also waterhemp_RES1, (ALS & Triazine resistant common waterhemp, Amaranthus rudis), and waterhemp_RES2, (ALS & HPPD resistant common waterhemp, Amaranthus rudis) were planted in pots containing Redi-Earth® planting medium (Scotts Company, 14111 Scottslawn Road, Marysville, Ohio 43041) comprising spaghnum peat moss, vermiculite, wetting agent and starter nutrients were treated with postemergence applications of test chemicals formulated in the same manner. Plants ranged in height from 2 to 18 cm for postemergence treatments (1- to 4-leaf stage). Treated plants and controls were maintained in a greenhouse for 14 to 21 d, after which time all species were compared to controls and visually evaluated. Plant response ratings, summarized in Table E, are based on a scale of 0 to 100 where 0 is no effect and 100 is complete control. A dash (-) response means no test result.

[7] = test system: dayflower, VA (Virginia dayflower, Commelina virginica); assay: as above; conditions: scale 0 to 100
Excerpt: as §2, §3

[8] = test system: nutsedge, yellow (yellow nutsedge, Cyperus esculentus); assay: as above; conditions: Preemergence, scale 0 to 100

COc1cc(=O)n(-c2ccc(F)cc2)nc1Cc1ccnc(C(F)(F)F)c1 [Compound 17, 2-(4-fluorophenyl)-5-methoxy-6-[[2-(trifluoromethyl)-4-pyridinyl]methyl]-3 (2H)-pyridazinone]
Plant response rating ([1]; Postemergence, 31 g ai/ha): 30 | Plant response rating ([1]; Postemergence, 62 g ai/ha): 30 | Plant response rating ([1]; Postemergence, 125 g ai/ha): 100 | Plant response rating ([1]; Postemergence, 250 g ai/ha): 100 | Plant response rating ([1]; Postemergence, 500 g ai/ha): 100 | Plant response rating ([1]; Preemergence, 31 g ai/ha): 0 | Plant response rating ([1]; Preemergence, 62 g ai/ha): 100 | Plant response rating ([1]; Preemergence, 125 g ai/ha): 100 | Plant response rating ([1]; Preemergence, 250 g ai/ha): 100 | Plant response rating ([1]; Preemergence, 500 g ai/ha): 100 | Plant response rating ([2]; Postemergence, 31 g ai/ha): 0 | Plant response rating ([2]; Postemergence, 62 g ai/ha): 5 | Plant response rating ([2]; Postemergence, 125 g ai/ha): 5 | Plant response rating ([2]; Postemergence, 250 g ai/ha): 10 | Plant response rating ([2]; Postemergence, 500 g ai/ha): 25 | Plant response rating ([2]; Preemergence, 31 g ai/ha): 80 | Plant response rating ([2]; Preemergence, 62 g ai/ha): 80 | Plant response rating ([2]; Preemergence, 125 g ai/ha): 100 | Plant response rating ([2]; Preemergence, 250 g ai/ha): 100 | Plant response rating ([2]; Preemergence, 500 g ai/ha): 100 | Plant response rating ([3]; Postemergence, 31 g ai/ha): 10 | Plant response rating ([3]; Postemergence, 62 g ai/ha): 10 | Plant response rating ([3]; Postemergence, 125 g ai/ha): 40 | Plant response rating ([3]; Postemergence, 250 g ai/ha): 75 | Plant response rating ([3]; Postemergence, 500 g ai/ha): 100 | Plant response rating ([3]; Preemergence, 31 g ai/ha): 0 | Plant response rating ([3]; Preemergence, 62 g ai/ha): 10 | Plant response rating ([3]; Preemergence, 125 g ai/ha): 30 | Plant response rating ([3]; Preemergence, 250 g ai/ha): 100 | Plant response rating ([3]; Preemergence, 500 g ai/ha): 100 | Plant response rating ([4]; Postemergence, 31 g ai/ha): 10 | Plant response rating ([4]; Postemergence, 62 g ai/ha): 100 | Plant response rating ([4]; Postemergence, 125 g ai/ha): 100 | Plant response rating ([4]; Postemergence, 250 g ai/ha): 100 | Plant response rating ([4]; Postemergence, 500 g ai/ha): 100 | Plant response rating ([4]; Preemergence, 31 g ai/ha): 100 | Plant response rating ([4]; Preemergence, 62 g ai/ha): 100 | Plant response rating ([4]; Preemergence, 125 g ai/ha): 100 | Plant response rating ([4]; Preemergence, 250 g ai/ha): 100 | Plant response rating ([4]; Preemergence, 500 g ai/ha): 100 | Plant response rating ([5]; Postemergence, 31 g ai/ha): 10 | Plant response rating ([5]; Postemergence, 62 g ai/ha): 10 | Plant response rating ([5]; Postemergence, 125 g ai/ha): 10 | Plant response rating ([5]; Postemergence, 250 g ai/ha): 20 | Plant response rating ([5]; Postemergence, 500 g ai/ha): 50 | Plant response rating ([5]; Preemergence, 31 g ai/ha): 0 | Plant response rating ([5]; Preemergence, 62 g ai/ha): 10 | Plant response rating ([5]; Preemergence, 125 g ai/ha): 30 | Plant response rating ([5]; Preemergence, 250 g ai/ha): 60 | Plant response rating ([5]; Preemergence, 500 g ai/ha): 90 | Plant response rating: Kochia ([6]; 16 g ai/ha): 70 | Plant response rating: Kochia ([6]; 31 g ai/ha): 90 | Plant response rating: Kochia ([6]; 62 g ai/ha): 95 | Plant response rating: Kochia ([6]; 125 g ai/ha): 98 | Plant response rating: Kochia ([6]; 250 g ai/ha): 98 | Plant response rating: Dayflower, VA ([7]; Postemergence, 16 g ai/ha): 10 | Plant response rating: Dayflower, VA ([7]; Postemergence, 31 g ai/ha): 10 | Plant response rating: Dayflower, VA ([7]; Postemergence, 62 g ai/ha): 15 | Plant response rating: Dayflower, VA ([7]; Postemergence, 125 g ai/ha): 30 | Plant response rating: Dayflower, VA ([7]; Postemergence, 250 g ai/ha): 40 | Plant response rating: Dayflower, VA ([7]; Preemergence, 16 g ai/ha): 0 | Plant response rating: Dayflower, VA ([7]; Preemergence, 31 g ai/ha): 10 | Plant response rating: Dayflower, VA ([7]; Preemergence, 62 g ai/ha): 20 | Plant response rating: Dayflower, VA ([7]; Preemergence, 250 g ai/ha): 80 | Plant response rating: Nutsedge, Yellow ([8]; 16 g ai/ha): 0 | Plant response rating: Nutsedge, Yellow ([8]; 31 g ai/ha): 0 | Plant response rating: Nutsedge, Yellow ([8]; 62 g ai/ha): 35 | Plant response rating: Nutsedge, Yellow ([8]; 125 g ai/ha): 50 | Plant response rating: Nutsedge, Yellow ([8]; 250 g ai/ha): 70
